Measured values: publication PMC3277400 (Nature Medicine, 2011)

Target: TcdB (Clostridioides difficile, UniProt P18177)
Assay type: biochemical

TcdB, sequence (P18177 2-2366 limits assumed): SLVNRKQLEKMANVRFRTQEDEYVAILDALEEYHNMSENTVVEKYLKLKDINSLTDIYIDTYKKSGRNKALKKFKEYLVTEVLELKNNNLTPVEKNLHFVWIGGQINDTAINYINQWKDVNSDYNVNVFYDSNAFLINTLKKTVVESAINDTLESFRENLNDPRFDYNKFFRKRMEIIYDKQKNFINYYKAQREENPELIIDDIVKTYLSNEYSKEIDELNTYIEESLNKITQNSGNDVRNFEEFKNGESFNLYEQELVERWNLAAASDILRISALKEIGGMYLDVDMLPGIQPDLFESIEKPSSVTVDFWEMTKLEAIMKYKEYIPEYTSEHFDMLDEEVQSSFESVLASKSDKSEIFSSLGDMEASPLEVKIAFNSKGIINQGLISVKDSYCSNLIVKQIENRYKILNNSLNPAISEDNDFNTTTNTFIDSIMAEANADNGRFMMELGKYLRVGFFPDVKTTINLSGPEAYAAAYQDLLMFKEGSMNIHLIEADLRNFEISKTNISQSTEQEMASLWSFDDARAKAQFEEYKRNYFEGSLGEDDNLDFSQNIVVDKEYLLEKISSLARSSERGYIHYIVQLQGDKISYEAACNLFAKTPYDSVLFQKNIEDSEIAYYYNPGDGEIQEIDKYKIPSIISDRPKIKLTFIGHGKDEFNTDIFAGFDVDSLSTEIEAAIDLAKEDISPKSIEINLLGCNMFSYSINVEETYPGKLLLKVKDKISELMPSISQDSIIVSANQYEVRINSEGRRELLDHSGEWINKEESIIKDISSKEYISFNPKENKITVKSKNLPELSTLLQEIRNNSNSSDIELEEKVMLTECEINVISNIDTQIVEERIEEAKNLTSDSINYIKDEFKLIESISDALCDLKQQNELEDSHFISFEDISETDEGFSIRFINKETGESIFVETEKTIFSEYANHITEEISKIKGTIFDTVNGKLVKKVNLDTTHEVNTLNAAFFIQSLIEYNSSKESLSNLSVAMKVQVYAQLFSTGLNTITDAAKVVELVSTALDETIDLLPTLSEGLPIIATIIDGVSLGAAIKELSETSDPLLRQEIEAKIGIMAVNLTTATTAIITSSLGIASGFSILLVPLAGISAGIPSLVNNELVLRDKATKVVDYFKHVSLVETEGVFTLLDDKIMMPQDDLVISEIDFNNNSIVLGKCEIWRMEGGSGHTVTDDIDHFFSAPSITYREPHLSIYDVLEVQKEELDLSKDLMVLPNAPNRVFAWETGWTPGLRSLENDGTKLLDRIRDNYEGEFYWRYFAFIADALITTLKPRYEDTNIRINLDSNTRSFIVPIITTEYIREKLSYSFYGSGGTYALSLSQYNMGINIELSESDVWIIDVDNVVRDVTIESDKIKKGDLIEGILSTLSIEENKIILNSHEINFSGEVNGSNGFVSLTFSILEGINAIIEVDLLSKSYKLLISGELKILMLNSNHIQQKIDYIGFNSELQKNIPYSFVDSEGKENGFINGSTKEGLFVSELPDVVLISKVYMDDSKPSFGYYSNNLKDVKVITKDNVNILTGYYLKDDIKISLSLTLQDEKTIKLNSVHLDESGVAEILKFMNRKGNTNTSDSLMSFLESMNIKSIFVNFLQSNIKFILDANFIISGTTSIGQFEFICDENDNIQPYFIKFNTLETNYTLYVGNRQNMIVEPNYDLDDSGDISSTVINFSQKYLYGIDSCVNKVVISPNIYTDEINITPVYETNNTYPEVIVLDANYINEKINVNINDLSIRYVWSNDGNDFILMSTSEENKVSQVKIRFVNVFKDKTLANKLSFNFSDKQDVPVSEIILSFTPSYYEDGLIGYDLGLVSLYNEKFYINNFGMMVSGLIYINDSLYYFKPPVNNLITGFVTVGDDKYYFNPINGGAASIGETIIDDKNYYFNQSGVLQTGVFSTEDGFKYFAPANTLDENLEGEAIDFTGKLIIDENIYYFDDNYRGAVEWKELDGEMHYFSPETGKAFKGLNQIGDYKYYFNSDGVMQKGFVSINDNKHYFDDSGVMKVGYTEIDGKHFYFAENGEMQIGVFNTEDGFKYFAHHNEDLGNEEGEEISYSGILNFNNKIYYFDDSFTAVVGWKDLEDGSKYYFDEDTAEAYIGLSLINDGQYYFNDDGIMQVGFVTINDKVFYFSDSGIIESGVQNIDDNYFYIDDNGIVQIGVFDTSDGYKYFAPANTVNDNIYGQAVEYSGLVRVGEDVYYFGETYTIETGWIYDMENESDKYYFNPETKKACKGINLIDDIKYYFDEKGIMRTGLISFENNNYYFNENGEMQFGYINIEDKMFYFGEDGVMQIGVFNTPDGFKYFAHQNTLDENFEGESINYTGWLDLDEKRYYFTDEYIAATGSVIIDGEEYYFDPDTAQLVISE

SMILES: O=P(O)(O)O[C@H]1[C@H](OP(=O)(O)O)[C@@H](OP(=O)(O)O)[C@H](OP(=O)(O)O)[C@@H](OP(=O)(O)O)[C@H]1OP(=O)(O)O [InsP6]
- InsP6-induced autocleavage, gel and immunoblot: Autocleavage of native TcdB versus E743A mutant with increasing InsP6 concentrations
